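In this assay, cells in 96-well plates receive the compound at five concentrations for 48 hours. Endpoints are linearly interpolated between the surrounding concentrations. GI50 marks 50% less growth. Definition used: TGI = concentration required for complete inhibition of growth.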

Common to all, as to test: NCI-60 cell line screen, 48 h
The test system of experiment [1] is NCI-H226 lung.
The subject of experiment [2] is SNB-19 CNS.
Experiment [3] deals with SK-OV-3 ovarian.
The subject of experiment [4] is UACC-62 melanoma.
Experiment [5] has as its system K-562 leukemia.
Experiment [6] concerns SK-MEL-5 melanoma.
The test system of experiment [7] is EKVX NSCLC.
Experiment [8] concerns HCT-116 colon.
The subject of experiment [9] is U251 CNS.
For experiment [10], the system named is PC-3 prostate.

Turning to `[N-]=[N+]=NC(c1cn(C2CC(O)C(CO)O2)c(=O)[nH]c1=O)C(Br)I` (configuration not stated), the TGI in experiment [1], in [2], in experiment [3], in experiment [4], in experiment [5] and in [6] was more than 100 µM in each case. Moreover, the TGI in [7], in experiment [8] and in [9] was more than 100 µM throughout.
Regarding `COC(=O)c1c(C)cccc1C1CN=NC12Cc1cccc(C)c1C2=O` (configuration not stated), the TGI is 98.4 µM in experiment [1]; more than 100 µM in experiment [2]; 71.1 µM in experiment [10]; 74 µM in [4]; 79.5 µM in [5]; 40.1 µM in experiment [6]. The TGI in experiment [7], in [8] and in experiment [9] was more than 100 µM each time.
As to `Cc1cc(C)c(C#N)c(SC(=S)NC(=O)c2ccccc2)n1`, the TGI in experiment [1], in experiment [2], in experiment [10], in experiment [4], in experiment [5] and in experiment [6] was more than 100 µM in each case. Also, the TGI in experiment [7], in experiment [8] and in experiment [9] was more than 100 µM throughout.
Turning to `CC(=O)OCC1(CNc2nc(N)ncc2C#N)CC(CCc2ccccc2)C1` (configuration not stated), the TGI in experiment [1] was more than 100 µM; in experiment [10], more than 100 µM; in experiment [4], more than 100 µM; in [5], more than 100 µM; in experiment [6], 42.8 µM; in [7], more than 100 µM. Besides, the TGI in [8] and in [9] was more than 100 µM in each case.
With `COc1ccccc1NC(=O)CSC(N)=O`, the TGI is more than 100 µM in experiment [1]; more than 100 µM in experiment [2]; more than 100 µM in experiment [3]; 68.3 µM in experiment [4]; more than 100 µM in [5]; more than 100 µM in experiment [6]. The TGI in experiment [7] was more than 100 µM; in [8] it was 36.6 µM; in experiment [9], 66.2 µM.
Turning to `O=C(O)Cn1ncn(NC(=O)Cc2ccccc2)c1=S`, the TGI in experiment [2], in experiment [3], in experiment [10], in experiment [4], in experiment [5] and in experiment [6] was more than 10 µM throughout. Moreover, the TGI in [7], in experiment [8] and in [9] was more than 10 µM in each case.
For `C=C1C(=O)O[C@H]2[C@H]1CC/C(COC(=O)/C=C/C(=O)OC/C1=C/CC[C@@]3(C)O[C@H]3[C@H]3OC(=O)C(=C)[C@@H]3CC1)=C\CC[C@@]1(C)O[C@@H]21`, the GI50 is 1.42 µM in experiment [1]; 5.49 µM in experiment [2]; more than 100 µM in experiment [3]; 3.02 µM in experiment [10]; 1.21 µM in [4]; 4.34 µM in [6]. Besides, the GI50 is 2.22 µM in [7], 0.253 µM in experiment [8] and 2.82 µM in experiment [9]. Further, the TGI in [1] is 3.11 µM; in experiment [2], more than 100 µM; in experiment [3], more than 100 µM; in experiment [10], more than 100 µM; in [4] it was 2.68 µM; in [6], more than 100 µM. In addition, the TGI is more than 100 µM in experiment [7], 0.756 µM in experiment [8] and 10.8 µM in experiment [9].
For `Cc1c(Cl)c(=O)oc2cc(OCC(O)COC(C)C)ccc12` (configuration not stated), the TGI was more than 100 µM in experiment [2]; more than 100 µM in experiment [3]; more than 100 µM in [10]; more than 100 µM in [4]; more than 100 µM in [5]; 38.3 µM in experiment [6]. Besides, the TGI in [7], in experiment [8] and in experiment [9] was more than 100 µM throughout.
With `C/C=C\C(CC(=O)NCCc1c[nH]c2ccccc12)CC(=O)OC` (configuration not stated), the TGI in experiment [2], in experiment [3], in experiment [10], in experiment [4], in experiment [5] and in experiment [6] was more than 100 µM throughout. The TGI in experiment [7], in [8] and in experiment [9] was more than 100 µM throughout.
In the case of `CCOC(=O)CC(=O)Sc1ccccc1`, the TGI is 58.4 µM in experiment [1]; more than 100 µM in experiment [2]; 49.3 µM in experiment [3]; 30.7 µM in [4]; 58.7 µM in experiment [5]; 58.5 µM in experiment [6]. For the same compound, the results for the TGI in experiment [7], in experiment [8] and in [9] were 74 µM, 26.8 µM and 40.2 µM, respectively.
With `CC(=O)Nc1nc(C)c(S(=O)(=O)NC(=O)N2c3ccccc3CCc3ccccc32)s1`, the TGI was 71.9 µM in experiment [2]; more than 100 µM in experiment [3]; more than 100 µM in experiment [10]; more than 100 µM in experiment [4]; more than 100 µM in experiment [5]; more than 100 µM in experiment [6]. Besides, the TGI in experiment [7], in experiment [8] and in [9] was more than 100 µM each time.
`O=C1/C(=C/c2cccs2)N=C(c2ccccc2)N1c1nc2ccccc2s1`: the TGI in experiment [1], in [2], in experiment [10], in experiment [5], in experiment [6] and in experiment [7] was more than 100 µM each time. For the same compound, the TGI in [8] and in experiment [9] was more than 100 µM each time.
Take `Cc1cccc(=O)c([O-])c1.Cc1cccc(=O)c([O-])c1.Cc1cccc(=O)c([O-])c1.Cc1cccc(=O)c([O-])c1.[Th+4]`: the TGI was more than 100 µM in experiment [1]; more than 100 µM in [2]; more than 100 µM in experiment [3]; 19.6 µM in experiment [4]; more than 38.6 µM in experiment [5]; 31.9 µM in experiment [6]. Also, the TGI in [7] is more than 89.1 µM; in experiment [8] it was 35 µM; in experiment [9] it was more than 100 µM.
As for `O=C(NCCNCCO)N/N=C/c1ccccc1`, the TGI in experiment [1], in experiment [2], in experiment [3], in experiment [4], in experiment [5] and in experiment [6] was more than 100 µM throughout. In addition, the TGI in experiment [8] and in experiment [9] was more than 100 µM in each case.
Turning to `CC(=O)Nc1ccc(C(=O)N2N=C(C)/C(=C/c3ccccc3O)C2=O)cc1`, the TGI in experiment [1], in experiment [2], in [5], in experiment [6], in experiment [7] and in experiment [8] was more than 100 µM throughout.
Take `CC(C)C(=O)/C=C/c1ccccc1`: the TGI in [2], in [3], in experiment [4], in experiment [5], in experiment [6] and in experiment [8] was more than 100 µM each time. The same compound showed a TGI in experiment [9] of more than 100 µM.
`COc1c(-c2ccc(F)cc2)oc2cc(O)cc(O)c2c1=O`: the TGI in experiment [2] is more than 100 µM; in experiment [3] it was more than 100 µM; in experiment [10] it was more than 100 µM; in experiment [5], more than 100 µM; in experiment [6], 30.1 µM; in experiment [7], 45.5 µM. Further, the TGI is more than 100 µM in [8] and 97.5 µM in experiment [9].
As for `O=C1C(Cl)C(c2cccc(O)c2)N1n1cnc2ccccc2c1=O` (configuration not stated), the TGI in experiment [1], in [2], in experiment [3], in [4], in experiment [5] and in experiment [6] was more than 100 µM each time. Also, the TGI in experiment [7], in experiment [8] and in experiment [9] was more than 100 µM throughout.
`O=c1n(C2CCCCC2)c(=C(Cl)Cl)c(=C(Cl)Cl)n1C1CCCCC1`: the TGI in experiment [1], in experiment [2], in [3], in [4], in experiment [5] and in [6] was more than 100 µM in each case. For the same compound, the TGI in experiment [7], in [8] and in experiment [9] was more than 100 µM throughout.
Consider `CC(C)(C)C(=O)O[C@H]1C=C[C@@H](O)[C@@H]2[C@H]1[C@@H]1C=C[C@H]2C1`, for which the TGI in [2], in experiment [3], in [4], in experiment [5], in [7] and in experiment [8] was more than 100 µM throughout. This compound also registered a TGI in [9] of more than 100 µM.
As to `O=C1NC(=S)N/C1=C\c1ccc(Sc2ccccc2C(=O)O)s1`, the TGI in experiment [1], in [2], in experiment [10], in experiment [4], in experiment [5] and in experiment [6] was more than 100 µM in each case. The TGI in experiment [7], in [8] and in experiment [9] was more than 100 µM throughout.
Regarding `NC(=O)CC[C@H]1C(=O)N=C(N)N1C(=O)OCc1ccccc1`, the TGI in experiment [1], in [2], in [10], in [4], in [5] and in experiment [6] was more than 100 µM in each case. Further, the TGI in [7], in experiment [8] and in experiment [9] was more than 100 µM in each case.
In the case of `CC(C)NCCNC(=O)c1ccccc1Nc1c(Cl)cccc1Cl`, the TGI worked out at 30.1 µM in experiment [1]; 30 µM in [2]; 28 µM in experiment [3]; 30.1 µM in [4]; 17.3 µM in experiment [6]; 28.1 µM in experiment [7]. In addition, the TGI in [8] stood at 23.4 µM; in experiment [9], 16.8 µM.
For the compound `COc1ccc(C2C3=CONC3CC3CCCCC32)cc1` (configuration not stated), the TGI in [1], in experiment [2], in experiment [10], in experiment [4], in experiment [5] and in [6] was more than 100 µM each time. Further, the TGI in [8] and in experiment [9] was more than 100 µM in each case.
Turning to `COc1ccc2c3c([nH]c2c1)-c1nc2ccccc2c(=O)n1CC3`, the TGI in experiment [2], in [3], in experiment [10], in experiment [5], in experiment [6] and in [7] was more than 25 µM in each case. In addition, the TGI in [8] and in experiment [9] was more than 25 µM throughout.
For the compound `N#C[C@H]1C(=O)C(c2nc3ccccc3[nH]2)S[C@H]1c1ccccc1` (some centres not stated), the TGI in [1] was more than 100 µM; in experiment [2], more than 100 µM; in experiment [3], more than 100 µM; in [4] it was 36.7 µM; in experiment [5] it was more than 100 µM; in experiment [6], more than 100 µM. Moreover, the TGI was more than 100 µM in experiment [7], more than 100 µM in [8] and 57.2 µM in [9].
For `CC(=O)CCCCCCCCCCCC[C@@H]1CC[C@H](C)[C@H](O)N1`, the TGI in experiment [1], in experiment [2], in experiment [3], in experiment [4], in experiment [5] and in [6] was more than 100 µM each time. Moreover, the TGI in experiment [7], in [8] and in experiment [9] was more than 100 µM each time.
On to `Cn1c(O)c(/C=N/c2ncccn2)c(=O)[nH]c1=O`, for which the TGI in [1], in [2], in experiment [3], in experiment [10], in [4] and in experiment [6] was more than 100 µM throughout. The TGI in [7], in [8] and in experiment [9] was more than 100 µM each time.
For `CCOc1ccccc1N=NC1C(=O)N(C(=O)CC(=O)Nc2ccccc2OC)N=C1C` (configuration not stated), the TGI in experiment [1] was more than 100 µM; in experiment [3] it was 94.3 µM; in experiment [10] it was more than 100 µM; in experiment [4], more than 100 µM; in experiment [6], more than 100 µM; in experiment [7], 21.8 µM. The TGI was more than 100 µM in experiment [8] and 95.6 µM in experiment [9].
Take `N#CC(NNC(=O)c1ccccc1O)c1ccc(O)cc1` (configuration not stated): the TGI in [1] was 55.1 µM; in [3], more than 100 µM; in [4], 5.97 µM; in [5] it was more than 100 µM; in experiment [6], more than 100 µM; in experiment [8], more than 100 µM. For the same compound, the TGI in experiment [9] was more than 100 µM.

The record behind these values is PubChem BioAssay (NCI).
